From patent publication EP1803452A1, “ESTER DERIVATIVE AND PHARMACEUTICAL USE THEREOF” (Japan Tobacco, Inc., priority 2004, dated 2006)

Assays:
[1] = Metabolic stability test in plasma; format: in vitro ADME, human; details: LC/MS; for remaining at 10 min: unchanged form after 10 minutes at 37°C in human plasma, read-out: Remaining rate in human plasma (%/10min); for remaining at 1 h: unchanged form after 60 minutes at 37°C in human plasma, read-out: Remaining rate in human plasma (%/60min)
How it was run: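 Remaining rate (%) versus zero time was derived from LC/MS measurement of parent compound after centrifugation. Plasma from human, mouse and hamster received DMSO-dissolved compound and was held at 37°C for 0, 10 or 60 minutes before acetonitrile containing formic acid (final 0.1%) stopped the reaction.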

[2] = Stability test in buffer (pH 7.4); format: physicochemical; details: phosphate buffer/acetonitrile 7:3, 100 mM potassium phosphate buffer (pH 7.4) and acetonitrile 7:3 (v/v), LC/MS; for remaining at 10 min: 10 minutes at 37°C, read-out: Buf. remaining rate (%/10min); for remaining at 1 h: 60 minutes at 37°C, read-out: Buf. remaining rate (%/60min)
How it was run: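 Parent compound measured by LC/MS after 0, 10 or 60 min at 37°C in a 7:3 (v/v) mix of 100 mM potassium phosphate buffer and acetonitrile, with the reaction stopped by acetonitrile plus formic acid (final 0.1%). Percentage remaining is expressed relative to the zero-time amount.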

[3] = Metabolic stability test in liver S9; format: in vitro ADME; details: pH 7.4, human liver S9 2 mg protein/mL, LC/MS; for remaining at 10 min: unchanged form after 10 minutes at 37°C, read-out: Remaining rate in human liver S9 (%/10min); for remaining at 1 h: unchanged form after 60 minutes at 37°C, read-out: Remaining rate in human liver S9 (%/60min)
How it was run: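 Compound from DMSO solution was incubated at 37°C with human liver S9 (final 2 mg protein/mL) in 100 mM potassium phosphate pH 7.4 with an NADPH-regenerating system for 0, 10 and 60 minutes. Reactions were stopped with acetonitrile/0.1% formic acid. Unchanged compound was measured by LC/MS as remaining rate (%) relative to zero time.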

Compound	remaining at 10 min [1] [%]	remaining at 1 h [1] [%]	remaining at 10 min [2] [%]	remaining at 1 h [2] [%]	remaining at 10 min [3] [%]	remaining at 1 h [3] [%]
CN(C)C(=O)COC(=O)c1ccc(OC(=O)CCCc2ccc(NC(=O)c3ccccc3-c3ccc(C(F)(F)F)cc3)c(C(=O)N(C)C)c2)cc1 [Compound 1-85, 4-[4-(3-dimethylcarbamoyl-4-{(4'-trifluoromethylbiphenyl-2-carbonyl)amino}phenyl)butyryloxy]benzoic acid dimethylcarbamoylmethyl ester]	61	4	103	102	0	0
CC(C)OC(=O)c1ccc(OC(=O)CCCc2ccc(NC(=O)c3cccnc3-c3ccc(C(F)(F)F)cc3)c(C(=O)N(C)C)c2)cc1 [Compound 1-31, 4-[4-(3-dimethylcarbamoyl-4-{[2-(4-trifluoromethylphenyl)pyridine-3-carbonyl]amino}phenyl)butyryloxy]benzoic acid isopropyl ester]	26	0	101	102	0	0
CN(C)C(=O)c1cc(CCCC(=O)Oc2ccc(C(=O)OC3CCc4ccccc43)cc2)ccc1NC(=O)c1ccccc1-c1ccc(C(F)(F)F)cc1 (stereo not drawn) [Compound 1-107, 4-[4-(3-dimethylcarbamoyl-4-{(4'-trifluoromethylbiphenyl-2-carbonyl)amino}phenyl)butyryloxy]benzoic acid indan-1-yl ester]	63	2	98	99	11	3
COC(=O)c1ccc(OC(=O)CCCc2ccc(NC(=O)c3ccccc3-c3ccc(C(F)(F)F)cc3)c(C(=O)N3CCCC3)c2)cc1 [Compound 1-15, 4-(4-{3-(pyrrolidine-1-carbonyl)-4-[(4'-trifluoromethylbiphenyl-2-carbonyl)amino]phenyl}butyryloxy)benzoic acid methyl ester]	42	0	98	100	4	0

Second part, the molecule after the results:

remaining at 10 min [1] [%]	remaining at 1 h [1] [%]	remaining at 10 min [2] [%]	remaining at 1 h [2] [%]	remaining at 10 min [3] [%]	remaining at 1 h [3] [%]	Compound
13	0	99	100	12	4	COc1cc(C(=O)OC(C)C)cc(OC)c1OC(=O)CCCc1ccc(NC(=O)c2ccc(C)nc2-c2ccc(C(F)(F)F)cc2)c(C(=O)N(C)C)c1 [Compound 1-44, 4-[4-(3-dimethylcarbamoyl-4-{[6-methyl-2-(4-trifluoromethylphenyl)pyridine-3-carbonyl]amino}phenyl)butyryloxy]-3,5-dimethoxybenzoic acid isopropyl ester]
0	0	100	102	5	0	CCOc1cc(C(=O)OC)cc(Cl)c1OC(=O)CCCc1ccc(NC(=O)c2ccc(C)nc2-c2ccc(C(F)(F)F)cc2)c(C(=O)N(C)C)c1 [Compound 1-40, 3-chloro-4-[4-(3-dimethylcarbamoyl-4-{[6-methyl-2-(4-trifluoromethylphenyl)pyridine-3-carbonyl]amino}phenyl)butyryloxy]-5-ethoxybenzoic acid methyl ester]
0	0	97	103	7	2	COC(=O)c1cc(Br)c(OC(=O)CCCc2ccc(NC(=O)c3ccc(C)nc3-c3ccc(C(F)(F)F)cc3)c(C(=O)N(C)C)c2)c(OC)c1 [Compound 1-50, 3-bromo-4-[4-(3-dimethylcarbamoyl-4-{[6-methyl-2-(4-trifluoromethylphenyl)pyridine-3-carbonyl]amino}phenyl)butyryloxy]-5-methoxybenzoic acid methyl ester]
